This is an account of results in US10703733B2, “MCL-1 inhibitors” (Gilead Sciences, Inc., priority 2018, dated 2020).

The target in assay [1] is MCL-1/Bim interaction (recombinant human MCL-1 protein, residues 171-327; biotinylated human Bim peptide, residues 51-76) (Homo sapiens (Human), UniProt Q07820). Description: MCL-1/Bim Binding AlphaLISA Assay. As to conditions: 0.0625 nM 6xHis-Mcl-1 (171-327), 0.0625 nM biotinylated-Bim peptide. The essentials:
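Compounds first sat 1 h with MCL-1 (171-327, 0.0625 nM), followed by 2 h with biotin-Bim 51-76 (0.0625 nM), then sequential 1 h anti-His acceptor and streptavidin donor bead steps; buffer Hepes pH 7.5 with NaCl, Brij 35, DTT, BSA. AlphaScreen signal converted to % inhibition using DMSO (negative) and protein/peptide-free (positive) controls.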
For orientation: Alpha assays give light when donor and acceptor beads are brought close together.

The test system of the next assay is SKBR3 cells. Description: SKBR3 Cell Viability Assay (CellTiter Glo). In kind it is cell-based. The note with it: CellTiter Glo luminescence, read-out: MCL-1 CV SKBR3 EC50. The essentials: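 Viability read as CellTiter Glo luminescence after 72 h of compound exposure at 37° C./5% CO2, using 6,000 SKBR3 cells per well in McCoy 5A with 10% FBS. Percent inhibition scaled between DMSO wells and 10 μM puromycin wells.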
(In general: In ATP-based viability assays light output follows the ATP content of the culture.)

pEC50, pIC50: −log10 of the molar value. Like-named read-outs stand apart in the source and are kept apart here.

Chain of MCL-1/Bim interaction (recombinant human MCL-1 protein, residues 171-327; biotinylated human Bim peptide, residues 51-76) (Q07820 171-327): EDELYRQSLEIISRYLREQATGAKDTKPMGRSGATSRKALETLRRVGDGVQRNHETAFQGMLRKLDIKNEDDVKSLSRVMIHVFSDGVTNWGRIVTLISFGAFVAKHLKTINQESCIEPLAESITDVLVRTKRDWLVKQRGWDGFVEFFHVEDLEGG

By pIC50 is commonly meant the negative decadic logarithm of the IC50, by convention in mol/L. As usually defined, the pEC50 is the EC50 on a negative log10 scale, so that one unit is a factor of ten. As for `CO[C@H]1/C=C/C[C@H](C)C[S@@](=O)(NC(=O)N[C@H]2C[C@H]2C)=NC(=O)c2ccc3c(c2)N(C[C@@H]2CC[C@H]21)C[C@@]1(CCCc2cc(Cl)ccc21)CO3` [Example 159], the pIC50 in assay [1] was 10.06. The pEC50 with SKBR3 cells (Homo sapiens, SK-BR-3, 72 h) is 6.84.
For `COC(=O)N1CC[C@@H](C(=O)N[S@@]2(=O)=NC(=O)c3ccc4c(c3)N(C[C@@H]3CC[C@H]3[C@@H](OC)/C=C/C[C@H](C)C2)C[C@@]2(CCCc3cc(Cl)ccc32)CO4)C1` [Example 438] the same measures were 9.73 and 6.56.
The like results for `CCn1ccc(C(=O)N[S@@]2(=O)=NC(=O)c3ccc4c(c3)N(C[C@@H]3CC[C@H]3[C@@H](OC)/C=C/C[C@H](C)C2)C[C@@]2(CCCc3cc(Cl)ccc32)CO4)c1` [Example 130] were, in that order, 9.74 and 6.82.
Turning to `CO[C@H]1/C=C/CCC[S@@](=O)(NC(=O)CCc2cncnc2)=NC(=O)c2ccc3c(c2)N(C[C@@H]2CC[C@H]21)C[C@@]1(CCCc2cc(Cl)ccc21)CO3` [Example 53], the pIC50 in assay [1] was 9.70. Further, in the assay with SKBR3 cells (Homo sapiens, SK-BR-3, 72 h), the pEC50 was 6.41.
The like results for `COC1CN(C(=O)N[S@@]2(=O)=NC(=O)c3ccc4c(c3)N(C[C@@H]3CC[C@H]3[C@@H](OC)CCC[C@H](C)C2)C[C@@]2(CCCc3cc(Cl)ccc32)CO4)C1` [Example 244] were, in that order, 10.49 and 6.93.
Regarding `CO[C@H]1/C=C/C[C@H](C)C[S@@](=O)(NC(=O)[C@@H](O)Cc2ccccc2)=NC(=O)c2ccc3c(c2)N(C[C@@H]2CC[C@H]21)C[C@@]1(CCCc2cc(Cl)ccc21)CO3` [Example 121], the pIC50 in assay [1] was 9.79. Further, the pEC50 with SKBR3 cells (Homo sapiens, SK-BR-3, 72 h) was 7.15.
The like results for `CO[C@H]1/C=C/C[C@H](C)C[S@@](=O)(NC(=O)c2ccc3c(c2)COCC3)=NC(=O)c2ccc3c(c2)N(C[C@@H]2CC[C@H]21)C[C@@]1(CCCc2cc(Cl)ccc21)CC3` [Example 157] were, in that order, 9.63 and 7.19.
Consider `CC[C@H]1C/C=C/[C@H](OC)[C@@H]2CC[C@H]2CN2C[C@@]3(CCCc4cc(Cl)ccc43)COc3ccc(cc32)C(=O)N=[S@](=O)(NC(=O)c2cn(C)nc2OC)C1` [Example 220], for which the pIC50 in assay [1] is 9.91. For the same compound, the pEC50 with SKBR3 cells (Homo sapiens, SK-BR-3, 72 h) was 7.01.
The like results for `CO[C@H]1/C=C/C[C@H](C)C[S@@](=O)(NC(=O)c2cn(C)nc2C(F)F)=NC(=O)c2ccc3c(c2)N(C[C@@H]2CC[C@H]21)C[C@@]1(CCCc2cc(Cl)ccc21)CO3` [Example 448] were, in that order, 9.93 and 6.60.
For `CO[C@H]1/C=C/CCC[S@@](=O)(NC(=O)CCc2c(C)cnn2C)=NC(=O)c2ccc3c(c2)N(C[C@@H]2CC[C@H]21)C[C@@]1(CCCc2cc(Cl)ccc21)CO3` [Example 103], in assay [1], the pIC50 is 9.00. In addition, the pEC50 in the assay with SKBR3 cells (Homo sapiens, SK-BR-3, 72 h) is 5.00.
With `CO[C@H]1/C=C/CCC[S@@](=O)(NC(=O)CCc2ncccn2)=NC(=O)c2ccc3c(c2)N(C[C@@H]2CC[C@H]21)C[C@@]1(CCCc2cc(Cl)ccc21)CO3` [Example 44], the negative logarithm of the IC50 (pIC50) in assay [1] is 10.00. Moreover, the pEC50 in the assay on SKBR3 cells (Homo sapiens, SK-BR-3, 72 h) is 6.43.
For `CO[C@H]1/C=C/C[C@H](C)C[S@@](=O)(NC(=O)N2CC(CO)(OC)C2)=NC(=O)c2ccc3c(c2)N(C[C@@H]2CC[C@H]21)C[C@@]1(CCCc2cc(Cl)ccc21)CO3` [Example 267] the same measures were 10.52 and 6.73.
With `CO[C@H]1/C=C/C[C@H](C)C[S@@](=O)(NC(=O)N2CC(OC)(c3ncnn3C)C2)=NC(=O)c2ccc3c(c2)N(C[C@@H]2CC[C@H]21)C[C@@]1(CCCc2cc(Cl)ccc21)CO3` [Example 277], the pIC50 in assay [1] is 10.21. Further, in the assay on SKBR3 cells (Homo sapiens, SK-BR-3, 72 h), the pEC50 was 7.22.
The like results for `COC(=O)N1CCC(OCC(=O)N[S@@]2(=O)=NC(=O)c3ccc4c(c3)N(C[C@@H]3CC[C@H]3[C@@H](OC)/C=C/C[C@H](C)[C@H]2C)C[C@@]2(CCCc3cc(Cl)ccc32)CO4)CC1` [Example 418] were, in that order, 9.71 and 6.47.
`CO[C@H]1/C=C/C[C@H](C)C[S@@](=O)(NC(=O)c2cn(C)c3nccnc23)=NC(=O)c2ccc3c(c2)N(C[C@@H]2CC[C@H]21)C[C@@]1(CCCc2cc(Cl)ccc21)CO3` [Example 450]: the pIC50 in assay [1] was 9.63. Further, the pEC50 in the assay on SKBR3 cells (Homo sapiens, SK-BR-3, 72 h) was 6.78.
For `COc1nn(C)cc1C(=O)N[S@@]1(=O)=NC(=O)c2ccc3c(c2)N(C[C@@H]2CC[C@H]2[C@@H](OCCN2CCOCC2)/C=C/C[C@H](C)C1)C[C@@]1(CCCc2cc(Cl)ccc21)CO3` [Example 366] the same measures were 10.07 and 7.27.
Consider `CO[C@H]1/C=C/C[C@H](C)C[S@@](=O)(NC(=O)N[C@H]2C[C@H]2OC)=NC(=O)c2ccc3c(c2)N(C[C@@H]2CC[C@H]21)C[C@@]1(CCCc2cc(Cl)ccc21)CO3` [Example 317], for which, in assay [1], the pIC50 is 10.47. For the same compound, the pEC50 with SKBR3 cells (Homo sapiens, SK-BR-3, 72 h) is 7.31.
In the case of `CCC(=O)N[S@@]1(=O)=NC(=O)c2ccc3c(c2)N(C[C@@H]2CC[C@H]2[C@@H](OC)CCCCC1)C[C@@]1(CCCc2cc(Cl)ccc21)CO3` [Example 12], the pIC50 in assay [1] is 8.77. Further, the pEC50 in the assay on SKBR3 cells (72 hours) was 5.35.
In the case of `COc1nn(C)cc1C(=O)N[S@@]1(=O)=NC(=O)c2ccc3c(c2)N(C[C@@H]2CC[C@H]2[C@@H](N2CC(OC)C2)/C=C/C[C@H](C)C1)C[C@@]1(CCCc2cc(Cl)ccc21)CO3` [Example 464], the pIC50 in assay [1] is 9.68. In addition, the pEC50 in the assay with SKBR3 cells (Homo sapiens, SK-BR-3, 72 h) is 6.65.
For `CO[C@H]1/C=C/C[C@H](C)C[S@@](=O)(NC(=O)N[C@H]2C[C@H](OC)C2)=NC(=O)c2ccc3c(c2)N(C[C@@H]2CC[C@H]21)C[C@@]1(CCCc2cc(Cl)ccc21)CO3` [Example 150], the pIC50 in assay [1] is 10.15. In addition, in the assay on SKBR3 cells (Homo sapiens, SK-BR-3, 72 h), the negative-log EC50 (pEC50) is 7.41.
Turning to `CO[C@H]1/C=C/C[C@H](C)C[S@@](=O)(NC(=O)c2cnc(C)nc2)=NC(=O)c2ccc3c(c2)N(C[C@@H]2CC[C@H]21)C[C@@]1(CCCc2cc(Cl)ccc21)CO3` [Example 461], the pIC50 in assay [1] is 10.06. The negative-log EC50 (pEC50) in the assay with SKBR3 cells (Homo sapiens, SK-BR-3, 72 h) was 6.82.
Take `COCC1(COC)Cn2cc(C(=O)N[S@@]3(=O)=NC(=O)c4ccc5c(c4)N(C[C@@H]4CC[C@H]4[C@@H](O)/C=C/C[C@H](C)[C@H]3C)C[C@@]3(CCCc4cc(Cl)ccc43)CO5)cc2CO1` [Example 331]: the pIC50 in assay [1] is 10.12. In addition, in the assay on SKBR3 cells (Homo sapiens, SK-BR-3, 72 h), the pEC50 was 7.16.
For `CO[C@H]1/C=C/C[C@H](C)C[S@@](=O)(NC(=O)N2CC(OC(F)F)C2)=NC(=O)c2ccc3c(c2)N(C[C@@H]2CC[C@H]21)C[C@@]1(CCCc2cc(Cl)ccc21)CO3` [Example 354] the same measures were 10.41 and 7.43.
As for `COC1CN(C2CN(C(=O)N[S@@]3(=O)=NC(=O)c4ccc5c(c4)N(C[C@@H]4CC[C@H]4[C@@H](OC)/C=C/C[C@H](C)C3)C[C@@]3(CCCc4cc(Cl)ccc43)CO5)C2)C1` [Example 286], the pIC50 in assay [1] is 10.43. For the same compound, in the assay on SKBR3 cells (Homo sapiens, SK-BR-3, 72 h), the pEC50 was 7.19.
For the compound `CO[C@H]1/C=C/C[C@H](C)C[S@@](=O)(NC(=O)c2cnn(C(C)C)c2)=NC(=O)c2ccc3c(c2)N(C[C@@H]2CC[C@H]21)C[C@@]1(CCCc2cc(Cl)ccc21)CO3` [Example 123], the pIC50 in assay [1] was 10.15. The pEC50 in the assay on SKBR3 cells (Homo sapiens, SK-BR-3, 72 h) is 6.94.
The like results for `CO[C@H]1/C=C/C[C@H](C)C[S@@](=O)(NC(=O)NC23COC(C)(C2)C3)=NC(=O)c2ccc3c(c2)N(C[C@@H]2CC[C@H]21)C[C@@]1(CCCc2cc(Cl)ccc21)CO3` [Example 340] were, in that order, 10.51 and 7.43.
The like results for `CCN(C)C(=O)N[S@@]1(=O)=NC(=O)c2ccc3c(c2)N(C[C@@H]2CC[C@H]2[C@@H](OC)/C=C/CCC1)C[C@@]1(CCCc2cc(Cl)ccc21)CO3` [Example 77] were, in that order, 8.28 and 5.22.
As for `CO[C@H]1/C=C/C[C@H](C)C[S@@](=O)(NC(=O)N2CC3(CCOC3)C2)=NC(=O)c2ccc3c(c2)N(C[C@@H]2CC[C@H]21)C[C@@]1(CCCc2cc(Cl)ccc21)CO3` [Example 456], the pIC50 in assay [1] was 10.00. Further, the pEC50 with SKBR3 cells (Homo sapiens, SK-BR-3, 72 h) was 6.76.
For `COc1nn(C)cc1C(=O)N[S@@]1(=O)=NC(=O)c2ccc3c(c2)N(C[C@@H]2CC[C@H]2[C@@H](O)/C=C/C[C@H](C)C1)C[C@@]1(CCCc2cc(Cl)ccc21)CO3` [Example 223] the same measures were 10.41 and 7.43.
For `CO[C@H]1/C=C/C[C@H](C)C[S@@](=O)(NC(=O)N[C@@H]2CC23CCOC3)=NC(=O)c2ccc3c(c2)N(C[C@@H]2CC[C@H]21)C[C@@]1(CCCc2cc(Cl)ccc21)CO3` (single isomer, unassigned) [Example 342] the same measures were 10.54 and 7.47.
`CO[C@H]1/C=C/C[C@H](C)C[S@@](=O)(NC(=O)c2cc3n(c2F)CCCC3)=NC(=O)c2ccc3c(c2)N(C[C@@H]2CC[C@H]21)C[C@@]1(CCCc2cc(Cl)ccc21)CO3` [Example 174]: in assay [1], the pIC50 is 9.82. The pEC50 with SKBR3 cells (72 hours) is 6.99.
For the compound `CO[C@H]1/C=C/C[C@H](C)C[S@@](=O)(NC(=O)N2CC(OC)(C(F)(F)F)C2)=NC(=O)c2ccc3c(c2)N(C[C@@H]2CC[C@H]21)C[C@@]1(CCCc2cc(Cl)ccc21)CO3` [Example 246], the pIC50 in assay [1] was 10.02. In addition, the pEC50 in the assay on SKBR3 cells (Homo sapiens, SK-BR-3, 72 h) is 6.75.
The like results for `CO[C@H]1/C=C/CCC[S@@](=O)(NC(C)=O)=NC(=O)c2ccc3c(c2)N(C[C@@H]2CC[C@H]21)C[C@@]1(CCCc2cc(Cl)ccc21)CO3` [Example 25] were, in that order, 9.22 and 5.70.
Consider `COc1nn(C)cc1C(=O)N[S@@]1(=O)=NC(=O)c2ccc3c(c2)N(C[C@@H]2CC[C@H]2[C@H](O)/C=C/C[C@H](C)[C@H]1C)C[C@@]1(CCCc2cc(Cl)ccc21)CO3` [Example 353], for which the pIC50 in assay [1] was 9.99. The pEC50 with SKBR3 cells (Homo sapiens, SK-BR-3, 72 h) was 6.59.
